pKi: −log10 of the molar value.
What follows are compounds tested against T1, histamine 3 receptor (H3R) (Homo sapiens, UniProt Q9Y5N1) (assay: Binding assay with 3H-(R)α-methylhistamine, competition binding on membranes of the human H3R-CHO cell line). Conditions: competition with 3H(R)α-methylhistamine (1 nM), Ki calculated from IC50 by Cheng-Prusoff.
T1 construct: expressed in transfected cells; host or cells: CHO cells
Description: Binding Assay with ^3H-(R)α-methylhistamine
Saturation binding experiments were performed using HR3-CHO membranes prepared as described in Takahashi, K, Tokita, S., Kotani, H. (2003) J. Pharmacol. Exp. Therapeutics 307, 213-218.
An appropriate amount of membrane (60 to 80 μg protein/well) was incubated with increasing concentrations of ^3H(R)α-Methylhistamine di-hydrochloride (0.10 to 10 nM). Non specific binding was determined using a 200 fold excess of cold (R)α-Methylhistamine dihydrobromide (500 nM final concentration). The incubation was carried out at room temperature (in deep-well plates shaking for three hours). The final volume in each well was 250 μl. The incubation was followed by rapid filtration on GF/B filters (pre-soaked with 100 μl of 0.5% PEI in Tris 50 mM shaking at 200 rpm for two hours). The filtration was made using a cell-harvester and the filter plates were then washed five times with ice cold washing buffer containing 0.5 M NaCl. After harvesting, the plates were dried at 55° C. for 60 min, then we added scintillation fluid (Microscint 40, 40 microl in each well) and the amount of radioactivity on the filter was determined in Packard top-counter after shaking the plates for two hours at 200 rpm at room temperature.
Binding Buffer: 50 mM Tris-HCl pH 7.4 and 5 mM MgCl2×6H2O pH 7.4. Washing Buffer: 50 mM Tris-HCl pH 7.4 and 5 mM MgCl2×6H2O and 0.5 M NaCl pH 7.4.
Indirect measurement of affinity of H3R inverse agonists: twelve increasing concentrations (ranging from 10 μM to 0.3 nM) of the selected compounds were always tested in competition binding experiments using membrane of the human H3R-CHO cell line. An appropriate amount of protein, e.g. approximately 500 cpm binding of RAMH at Kd, were incubated for 1 hour at room temperature in 250 μl final volume in 96-well plates in presence of ^3H(R)α-methylhistamine (1 nM final concentration=Kd). Non-specific binding was determined using a 200 fold excess of cold (R)α-methylhistamine dihydrobromide.
All compounds were tested at a single concentration in duplicate. […] The concentration at which 50% inhibition of the radioligand ^3H(R)α-methylhistamine is obtained (the IC50) is determined from the linear regression of a plot of the logarithm of the concentration versus percent inhibition measured for the different concentrations. Ki's were calculated from IC50 based on Cheng-Prusoff equation (Cheng, Y, Prusoff, W H (1973) Biochem Pharmacol 22, 3099-3108): Ki=IC50/[1+D/Kd] wherein D is the concentration of the radioligand and Kd is the binding constant for the radioligand binding to the receptor under the conditions used in the competition experiment.

T1 sequence (Q9Y5N1 whole entry): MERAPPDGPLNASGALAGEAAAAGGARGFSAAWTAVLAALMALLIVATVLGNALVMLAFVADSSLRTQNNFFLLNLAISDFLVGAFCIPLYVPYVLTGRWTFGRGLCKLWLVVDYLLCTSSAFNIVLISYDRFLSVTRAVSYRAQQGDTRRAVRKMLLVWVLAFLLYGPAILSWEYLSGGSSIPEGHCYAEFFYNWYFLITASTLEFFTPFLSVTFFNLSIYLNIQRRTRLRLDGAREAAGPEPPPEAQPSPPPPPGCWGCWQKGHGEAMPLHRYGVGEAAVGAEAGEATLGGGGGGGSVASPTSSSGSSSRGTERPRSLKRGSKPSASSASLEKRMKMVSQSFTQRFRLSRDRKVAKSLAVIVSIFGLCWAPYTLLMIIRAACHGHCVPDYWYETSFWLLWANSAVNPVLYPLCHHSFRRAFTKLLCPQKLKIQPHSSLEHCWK

`O=C1COCCN1c1ccc(O[C@H]2CC[C@H](C(=O)N3CCN(C4CCC4)CC3)CC2)cc1` [Example 42, trans-4-{4-[4-(4-Cyclobutyl-piperazine-1-carbonyl)-cyclohexyloxy]-phenyl}-morpholin-3-one] was tested. Which pKi did it give?
The pKi was 8.16.

With `CS(=O)(=O)c1ccc(O[C@H]2CC[C@H](C(=O)N3CCN(C4CCC4)CC3)CC2)nc1` [Example 13, trans-(4-Cyclobutyl-piperazin-1-yl)-[4-(5-methanesulfonyl-pyridin-2-yloxy)-cyclohexyl]-methanone] as the compound, how does the pKi read?
Its pKi is 7.95.

How did the pKi turn out when `CC(C)c1nnc(-c2ccc(O[C@H]3CC[C@H](C(=O)N4CCN(C(C)C)CC4)CC3)cc2)o1` [Example 31, trans-{4-[4-(5-Isopropyl-[1,3,4]oxadiazol-2-yl)-phenoxy]-cyclohexyl}-(4-isopropyl-piperazin-1-yl)-methanone] was run?
The pKi was 8.25.

How did the pKi turn out when `O=C([C@H]1CC[C@H](Oc2ccc(-n3cncn3)cc2)CC1)N1CCN(C2CCC2)CC1` [Example 1, Trans-(4-Cyclobutyl-piperazin-1-yl)-[4-(4-[1,2,4]triazol-1-yl-phenoxy)-cyclohexyl]-methanone] was run?
Its pKi is 8.19.

How did the pKi turn out when `CC(C)N1CCN(C(=O)[C@H]2CC[C@H](Oc3ccc(-c4ccncc4)cc3)CC2)CC1` [Example 50, trans-(4-Isopropyl-piperazin-1-yl)-[4-(4-pyridin-4-yl-phenoxy)-cyclohexyl]-methanone] was run?
The pKi was 8.36.

With `CNC(=O)c1csc(O[C@H]2CC[C@H](C(=O)N3CCN(C(C)C)CC3)CC2)n1` [Example 27, trans-2-[4-(4-Isopropyl-piperazine-1-carbonyl)-cyclohexyloxy]-thiazole-4-carboxylic acid methylamide] as the compound, how does the pKi read?
The pKi was 7.54.

Reference: US7544683B2, “Cyclohexyl derivatives” (Hoffmann-La Roche Inc., priority 2007, dated 2009)
